Assay results published in PubChem BioAssay (NCI).
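Growth conditions: 96-well plates. Treatment: test compound, 48 hours, 5 concentrations. Analysis: linear interpolation between bracketing concentrations; unreached endpoints set to highest concentration. GI50 marks 50% less growth. TGI: concentration producing complete growth inhibition.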

Columns and labels:
Assay in all cases: DTP human tumour cell line panel, 48 h
786-0 renal = tested on: 786-0 renal
A498 renal = tested on: A498 renal
A549 NSCLC = tested on: A549 NSCLC
ACHN renal = tested on: ACHN renal
BT-549 breast = tested on: BT-549 breast
CAKI-1 renal = tested on: CAKI-1 renal
COLO 205 colon = tested on: COLO 205 colon
DU-145 prostate = tested on: DU-145 prostate
EKVX NSCLC = tested on: EKVX NSCLC
HCT-116 colon = tested on: HCT-116 colon
HCT-15 colon = tested on: HCT-15 colon
HL-60(TB) leukemia = tested on: HL-60(TB) leukemia
HOP-62 NSCLC = tested on: HOP-62 NSCLC
HOP-92 NSCLC = tested on: HOP-92 NSCLC
HS 578T breast = tested on: HS 578T breast
HT29 colon = tested on: HT29 colon
IGROV1 ovarian = tested on: IGROV1 ovarian
K-562 leukemia = tested on: K-562 leukemia
KM12 colon = tested on: KM12 colon
LOX IMVI melanoma = tested on: LOX IMVI melanoma
M14 melanoma = tested on: M14 melanoma
MALME-3M melanoma = tested on: MALME-3M melanoma
MCF7 breast = tested on: MCF7 breast
MDA-MB-231 breast = tested on: MDA-MB-231 breast
MDA-MB-435 = tested on: MDA-MB-435
MOLT-4 leukemia = tested on: MOLT-4 leukemia
NCI-H226 lung = tested on: NCI-H226 lung
NCI-H23 lung = tested on: NCI-H23 lung
NCI-H460 lung = tested on: NCI-H460 lung
NCI-H522 lung = tested on: NCI-H522 lung
NCI/ADR-RES ovarian = tested on: NCI/ADR-RES ovarian
OVCAR-3 ovarian = tested on: OVCAR-3 ovarian
OVCAR-4 ovarian = tested on: OVCAR-4 ovarian
OVCAR-5 ovarian = tested on: OVCAR-5 ovarian
OVCAR-8 ovarian = tested on: OVCAR-8 ovarian
PC-3 prostate = tested on: PC-3 prostate
RPMI-8226 leukemia = tested on: RPMI-8226 leukemia
RXF 393 renal = tested on: RXF 393 renal
SF-268 CNS = tested on: SF-268 CNS
SF-295 CNS = tested on: SF-295 CNS
SF-539 CNS = tested on: SF-539 CNS
SK-MEL-2 melanoma = tested on: SK-MEL-2 melanoma
SK-MEL-28 melanoma = tested on: SK-MEL-28 melanoma
SK-MEL-5 melanoma = tested on: SK-MEL-5 melanoma
SK-OV-3 ovarian = tested on: SK-OV-3 ovarian
SN12C renal = tested on: SN12C renal
SNB-19 CNS = tested on: SNB-19 CNS
SNB-75 CNS = tested on: SNB-75 CNS
SR leukemia = tested on: SR leukemia
SW-620 colon = tested on: SW-620 colon
T-47D breast = tested on: T-47D breast
TK-10 renal = tested on: TK-10 renal
U251 CNS = tested on: U251 CNS
UACC-257 melanoma = tested on: UACC-257 melanoma
UACC-62 melanoma = tested on: UACC-62 melanoma
UO-31 renal = tested on: UO-31 renal
CCRF-CEM leukemia = tested on: CCRF-CEM leukemia
HCC-2998 colon = tested on: HCC-2998 colon

CCOc1ccc(N=C/C=C(\Cl)c2ccc3ccccc3c2)cc1 was tested, and the TGI (786-0 renal) was 26.7 µM, the TGI (A498 renal) was over 94.5 µM and the TGI (A549 NSCLC) was over 100 µM. The TGI (ACHN renal) was 32.7 µM, the TGI (BT-549 breast) was 40.4 µM and the TGI (CAKI-1 renal) was 34 µM. The TGI (COLO 205 colon) was 37.7 µM, the TGI (DU-145 prostate) was 30.7 µM and the TGI (EKVX NSCLC) was 62.1 µM. It also gave a TGI (HCT-116 colon) of 21.6 µM, a TGI (HCT-15 colon) of 30.2 µM and a TGI (HL-60(TB) leukemia) of 33.8 µM. For the same compound, the TGI (HOP-62 NSCLC) was 29.8 µM, the TGI (HOP-92 NSCLC) was 33.3 µM and the TGI (HS 578T breast) was 82.2 µM. The TGI (HT29 colon) was 33.3 µM, the TGI (IGROV1 ovarian) was 41.5 µM and the TGI (K-562 leukemia) was 23.7 µM. For the same compound, the TGI (KM12 colon) was 33.9 µM, the TGI (LOX IMVI melanoma) was 15.3 µM and the TGI (M14 melanoma) was 37.7 µM. The TGI (MALME-3M melanoma) was 30.6 µM, the TGI (MCF7 breast) was 55.1 µM and the TGI (MDA-MB-231 breast) was 30.9 µM. For the same compound, the TGI (MDA-MB-435) was 43.9 µM, the TGI (MOLT-4 leukemia) was 6.16 µM and the TGI (NCI-H226 lung) was 53.7 µM. For the same compound, the TGI (NCI-H23 lung) was 25.1 µM, the TGI (NCI-H460 lung) was 44.8 µM and the TGI (NCI-H522 lung) was 52.1 µM. For the same compound, the TGI (NCI/ADR-RES ovarian) was 31.8 µM, the TGI (OVCAR-3 ovarian) was 31.5 µM and the TGI (OVCAR-4 ovarian) was 26.3 µM. For the same compound, the TGI (OVCAR-5 ovarian) was 36.3 µM, the TGI (OVCAR-8 ovarian) was 32.8 µM and the TGI (PC-3 prostate) was 36 µM. The TGI (RPMI-8226 leukemia) was 24.7 µM, the TGI (RXF 393 renal) was 34.1 µM and the TGI (SF-268 CNS) was 37.4 µM. The TGI (SF-295 CNS) was 36 µM, the TGI (SF-539 CNS) was 39 µM and the TGI (SK-MEL-2 melanoma) was 42.7 µM. The TGI (SK-MEL-28 melanoma) was 31.4 µM, the TGI (SK-MEL-5 melanoma) was 31 µM and the TGI (SK-OV-3 ovarian) was 38.4 µM. For the same compound, the TGI (SN12C renal) was 33.9 µM, the TGI (SNB-19 CNS) was 35.7 µM and the TGI (SNB-75 CNS) was 33.4 µM. The TGI (SR leukemia) was 5.31 µM, the TGI (SW-620 colon) was 36.5 µM and the TGI (T-47D breast) was 22.3 µM. It also gave a TGI (TK-10 renal) of 35.7 µM, a TGI (U251 CNS) of 33.4 µM and a TGI (UACC-257 melanoma) of 30.8 µM. The TGI (UACC-62 melanoma) was 31 µM and the TGI (UO-31 renal) was 29.9 µM.

CN(C)CCNc1nc2ccccc2c2[nH]c3ccccc3c12 gave a GI50 (786-0 renal) of 0.396 µM, a TGI (786-0 renal) of 2.51 µM and a GI50 (A498 renal) of 5.32 µM. The TGI (A498 renal) was 11 µM, the GI50 (A549 NSCLC) was 0.37 µM and the TGI (A549 NSCLC) was 10.1 µM. The GI50 (ACHN renal) was 0.19 µM, the TGI (ACHN renal) was 1.21 µM and the GI50 (BT-549 breast) was 2.58 µM. For the same compound, the TGI (BT-549 breast) was 8.83 µM, the GI50 (CAKI-1 renal) was 0.344 µM and the TGI (CAKI-1 renal) was 1.76 µM. For the same compound, the GI50 (CCRF-CEM leukemia) was 0.937 µM, the TGI (CCRF-CEM leukemia) was 3.95 µM and the GI50 (COLO 205 colon) was 0.316 µM. The TGI (COLO 205 colon) was 1.09 µM, the GI50 (DU-145 prostate) was 1.06 µM and the TGI (DU-145 prostate) was 6.93 µM. The GI50 (EKVX NSCLC) was 1.7 µM, the TGI (EKVX NSCLC) was 14.3 µM and the GI50 (HCC-2998 colon) was 0.483 µM. It also gave a TGI (HCC-2998 colon) of 2.38 µM, a GI50 (HCT-116 colon) of 0.106 µM and a TGI (HCT-116 colon) of 2.25 µM. The GI50 (HL-60(TB) leukemia) was 1.55 µM, the TGI (HL-60(TB) leukemia) was 3.77 µM and the GI50 (HOP-62 NSCLC) was 0.203 µM. It also gave a TGI (HOP-62 NSCLC) of 1.8 µM, a GI50 (HOP-92 NSCLC) of 0.464 µM and a TGI (HOP-92 NSCLC) of 2.42 µM. The GI50 (HS 578T breast) was 4.01 µM, the TGI (HS 578T breast) was 13.6 µM and the GI50 (HT29 colon) was 0.188 µM. The TGI (HT29 colon) was over 77.1 µM, the GI50 (IGROV1 ovarian) was 0.97 µM and the TGI (IGROV1 ovarian) was over 31.7 µM. For the same compound, the GI50 (K-562 leukemia) was 0.748 µM, the TGI (K-562 leukemia) was 9.23 µM and the GI50 (KM12 colon) was 0.328 µM. The TGI (KM12 colon) was 2.92 µM, the GI50 (LOX IMVI melanoma) was 0.301 µM and the TGI (LOX IMVI melanoma) was 1.11 µM. For the same compound, the GI50 (M14 melanoma) was 0.41 µM, the TGI (M14 melanoma) was 1.71 µM and the GI50 (MCF7 breast) was 0.129 µM. It also gave a TGI (MCF7 breast) of 0.941 µM, a GI50 (MDA-MB-231 breast) of 1.22 µM and a TGI (MDA-MB-231 breast) of 3.99 µM. The GI50 (MDA-MB-435) was 0.42 µM, the TGI (MDA-MB-435) was 1.71 µM and the GI50 (MOLT-4 leukemia) was 0.571 µM. It also gave a TGI (MOLT-4 leukemia) of 2.37 µM, a GI50 (NCI-H226 lung) of 0.587 µM and a TGI (NCI-H226 lung) of 4.74 µM. It also gave a GI50 (NCI-H23 lung) of 0.96 µM, a TGI (NCI-H23 lung) of 4.65 µM and a GI50 (NCI-H460 lung) of 0.244 µM. For the same compound, the TGI (NCI-H460 lung) was 1.97 µM, the GI50 (NCI-H522 lung) was 1.33 µM and the GI50 (NCI/ADR-RES ovarian) was 1.02 µM. It also gave a TGI (NCI/ADR-RES ovarian) of 7.86 µM, a GI50 (OVCAR-3 ovarian) of 0.438 µM and a TGI (OVCAR-3 ovarian) of 2.01 µM. For the same compound, the GI50 (OVCAR-5 ovarian) was 1.56 µM, the TGI (OVCAR-5 ovarian) was 21.9 µM and the GI50 (OVCAR-8 ovarian) was 0.535 µM. For the same compound, the TGI (OVCAR-8 ovarian) was 9.93 µM, the GI50 (PC-3 prostate) was 0.574 µM and the TGI (PC-3 prostate) was 2.8 µM. For the same compound, the GI50 (RPMI-8226 leukemia) was 0.648 µM, the TGI (RPMI-8226 leukemia) was 1.97 µM and the GI50 (RXF 393 renal) was 1.27 µM. It also gave a TGI (RXF 393 renal) of 5.41 µM, a GI50 (SF-268 CNS) of 0.293 µM and a TGI (SF-268 CNS) of 1.82 µM. The GI50 (SF-295 CNS) was 0.439 µM, the TGI (SF-295 CNS) was 2.91 µM and the GI50 (SF-539 CNS) was 0.891 µM. For the same compound, the TGI (SF-539 CNS) was 3.06 µM, the GI50 (SK-MEL-2 melanoma) was 2.44 µM and the TGI (SK-MEL-2 melanoma) was 20.9 µM. The GI50 (SK-MEL-28 melanoma) was 1.98 µM, the TGI (SK-MEL-28 melanoma) was 6.44 µM and the GI50 (SK-MEL-5 melanoma) was 1.61 µM. The TGI (SK-MEL-5 melanoma) was 3.94 µM, the GI50 (SK-OV-3 ovarian) was 1.72 µM and the TGI (SK-OV-3 ovarian) was 13.9 µM. For the same compound, the GI50 (SN12C renal) was 0.693 µM, the TGI (SN12C renal) was 2.82 µM and the GI50 (SNB-19 CNS) was 1.04 µM. The TGI (SNB-19 CNS) was 8 µM, the GI50 (SNB-75 CNS) was 1.22 µM and the TGI (SNB-75 CNS) was 3.2 µM. It also gave a GI50 (SR leukemia) of 0.341 µM, a TGI (SR leukemia) of 1.31 µM and a GI50 (SW-620 colon) of 0.764 µM. It also gave a TGI (SW-620 colon) of 19.7 µM, a GI50 (T-47D breast) of 15.8 µM and a TGI (T-47D breast) of 92.2 µM. The GI50 (TK-10 renal) was 0.429 µM, the TGI (TK-10 renal) was 1.95 µM and the GI50 (U251 CNS) was 0.386 µM. It also gave a TGI (U251 CNS) of 2.04 µM, a GI50 (UACC-257 melanoma) of 3.74 µM and a TGI (UACC-257 melanoma) of 16.9 µM. For the same compound, the GI50 (UACC-62 melanoma) was 1.36 µM, the TGI (UACC-62 melanoma) was 3.55 µM and the GI50 (UO-31 renal) was 1.01 µM. For the same compound, the TGI (UO-31 renal) was 13 µM.
